Measurements reported in ChEMBL document CHEMBL4265931, “Identification of dual Sigma1 receptor modulators/acetylcholinesterase inhibitors with antioxidant and neurotrophic properties, as neuroprotective agents” (Eur J Med Chem, 2018).
Calls of active or inactive are those of the source. No cut-off for these calls is given here.

Legend:
SH-SY5Y [1] = assay: Cytotoxicity against human SH-SY5Y cells assessed as reduction in cell viability after 48 hrs by MTS assay; format: cell-based; conditions: human, sh-sy5y
in vitro [2] = conditions: human, SH-SY5Y cells
Description: Cytotoxicity against human SH-SY5Y cells assessed as cell viability at 10 uM after 24 hrs by MTS assay relative to control

in vitro [3] = conditions: human, SH-SY5Y cells; remark: listed apart in the source
Description: Cytotoxicity against human SH-SY5Y cells assessed as cell viability at 10 uM after 48 hrs by MTS assay relative to control

in vitro [4] = conditions: human, SH-SY5Y cells; remark: listed apart in the source
Description: Cytotoxicity against human SH-SY5Y cells assessed as cell viability at 50 uM after 48 hrs by MTS assay relative to control

in vitro [5] = conditions: human, SH-SY5Y cells; remark: listed apart in the source
Description: Cytotoxicity against human SH-SY5Y cells assessed as cell viability at 50 uM after 24 hrs by MTS assay relative to control

[6] = Antioxidant activity assessed as DPPH free radical scavenging at 465 uM after 20 mins by UV-Vis spectrophotometric analysis relative to control; format: functional
in vitro [7] = conditions: human, SH-SY5Y cells; remark: listed apart in the source
[8] = target: T1, Sigma intracellular receptor 2 (Rattus norvegicus, UniProt Q5U3Y7); assay: Displacement of [3H]-DTG from S2R in rat liver membranes after 120 mins by scintillation counting assay; format: cell membranes, Membrane
T1 sequence (Q5U3Y7 whole entry): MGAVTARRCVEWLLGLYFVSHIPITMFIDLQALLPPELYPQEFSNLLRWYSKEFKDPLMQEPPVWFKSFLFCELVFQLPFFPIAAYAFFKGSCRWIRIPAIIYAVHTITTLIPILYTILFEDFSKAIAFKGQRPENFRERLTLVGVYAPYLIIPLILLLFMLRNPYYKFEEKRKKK

in vitro [9] = conditions: human, SH-SY5Y cells; remark: listed apart in the source
SH-SY5Y [10] = assay: Cytotoxicity against human SH-SY5Y cells assessed as reduction in cell viability after 24 hrs by MTS assay; format: cell-based; conditions: human, sh-sy5y
[11] = target: Sigma non-opioid intracellular receptor 1 (Cavia porcellus, UniProt Q60492); assay: Displacement of [3H](+)-pentazocine from S1R in guinea pig brain cortex membranes after 120 mins by scintillation counting assay; format: cell membranes
[12] = Displacement of [3H]-ifenprodil from GluN1a/GluN2B (unknown origin) expressed in mouse L(tk-) cell membranes after 120 mins by scintillation counting analysis; parameters: species or system Homo sapiens
Acetylcholinesterase = Acetylcholinesterase (Electrophorus electricus, UniProt O42275); assay: Inhibition of electric eel AChE using acetylthiocholine iodide as substrate preincubated for 5 mins followed by substrate addition and measured after 2 mins by Ellman's method
[13] = Selectivity ratio of Ki for S2R in rat liver membranes to Ki for S1R in guinea pig brain cortex membranes; format: cell membranes
[14] = Antioxidant activity assessed as DPPH free radical scavenging after 20 mins by UV-Vis spectrophotometric analysis; format: functional
SH-SY5Y [15] = assay: Neuroprotection against H2O2-induced oxidative stress in human SH-SY5Y cells assessed as reduction in ROS generation at 10 uM preincubated for 3 hrs followed by DCFDA addition for 45 mins and subsequent co-treatment with compound and H2O2 for 24 hrs by fluorescence assay relative to control; format: functional

Acetylcholinesterase, sequence (O42275 whole entry): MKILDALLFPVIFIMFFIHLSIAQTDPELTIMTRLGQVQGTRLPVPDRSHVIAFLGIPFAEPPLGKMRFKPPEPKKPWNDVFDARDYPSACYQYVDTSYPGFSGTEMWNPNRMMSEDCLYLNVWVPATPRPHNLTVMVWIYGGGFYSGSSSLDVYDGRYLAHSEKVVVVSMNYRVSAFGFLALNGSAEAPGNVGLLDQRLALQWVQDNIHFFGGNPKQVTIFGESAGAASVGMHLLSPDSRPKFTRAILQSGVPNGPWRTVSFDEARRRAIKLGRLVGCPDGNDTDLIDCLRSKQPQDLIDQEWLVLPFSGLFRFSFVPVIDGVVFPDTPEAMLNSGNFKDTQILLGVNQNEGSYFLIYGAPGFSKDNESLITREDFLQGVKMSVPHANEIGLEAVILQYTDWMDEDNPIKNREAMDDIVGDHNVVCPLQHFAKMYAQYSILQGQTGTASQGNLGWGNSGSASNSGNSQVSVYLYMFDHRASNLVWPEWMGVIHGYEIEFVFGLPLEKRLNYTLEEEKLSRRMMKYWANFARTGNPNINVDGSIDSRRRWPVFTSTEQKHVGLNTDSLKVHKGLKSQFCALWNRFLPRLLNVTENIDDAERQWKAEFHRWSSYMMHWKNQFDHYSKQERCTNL
Sigma non-opioid intracellular receptor 1, sequence (Q60492 whole entry): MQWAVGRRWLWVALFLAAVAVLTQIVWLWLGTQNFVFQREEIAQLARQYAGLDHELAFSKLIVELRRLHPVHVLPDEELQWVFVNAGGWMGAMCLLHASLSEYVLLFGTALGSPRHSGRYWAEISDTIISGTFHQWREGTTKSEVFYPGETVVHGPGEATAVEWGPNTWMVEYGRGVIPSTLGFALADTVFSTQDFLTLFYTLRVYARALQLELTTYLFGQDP

Row | SMILES | Activity (SH-SY5Y [1]) | viability at 24 h, 10 µM (in vitro [2]) [%] | viability at 48 h, 10 µM (in vitro [3]) [%] | viability at 48 h, 50 µM (in vitro [4]) [%] | viability at 24 h, 50 µM (in vitro [5]) [%] | Activity [6] [%] | viability at 48 h, 25 µM (in vitro [7]) [%] | Ki [8] [nM] | viability at 24 h, 25 µM (in vitro [9]) [%] | Activity (SH-SY5Y [10]) | Ki [11] [nM] | Ki [12] [nM] | IC50 (Acetylcholinesterase) [nM] | Ratio Ki [13] | IC50 [14] [nM] | Activity (SH-SY5Y [15])
1 | Cl.O=C(CCCN1CCC(Cc2ccccc2)CC1)c1ccccc1 | Dose-dependent effect | 100 | 96 | 54 | 87 | 29.3 | 95 | 47 | 100 | Dose-dependent effect | 9 | 39 | 13100 | 5.2 | – | –
2 | CC(C(O)c1ccc(O)cc1)N1CCC(Cc2ccccc2)CC1 (centres undefined) [IFENPRODIL] | – | – | – | – | – | – | – | – | – | – | – | 10 | – | – | – | –
3 | COc1ccc(C(=O)CCN2CCOCC2)cc1 | – | – | – | – | – | – | – | > 1000 | – | – | 301 | > 1000 | – | – | – | –
4 | O=C(CN1CCC(Cc2ccccc2)CC1)c1ccc(-c2ccccc2)cc1 | – | – | – | – | – | – | – | > 1000 | – | – | – | > 1000 | – | – | – | –
5 | COc1ccc2cc(C(=O)CCCN3CCC(Cc4ccccc4)CC3)ccc2c1 | – | – | – | – | – | – | – | 107 | – | – | 68 | 20 | 4280 | 1.6 | – | –
6 | Cl.O=C(CCCN1CCC(Cc2ccccc2)CC1)c1ccc2ccccc2c1 | Dose-dependent effect | 80.2 | 77 | 61 | 86 | 31.6 | 57 | 58 | 86 | Dose-dependent effect | 24 | 26 | – | 2.4 | – | –
7 | O=C(CCCN1CCC(Cc2ccccc2)CC1)c1ccc(-c2ccccc2)cc1 | – | – | – | – | – | – | – | 704 | – | – | 135 | 96 | 13900 | 5.2 | – | –
8 | COc1cccc(C(=O)CCCN2CCC(Cc3ccccc3)CC2)c1.Cl | Dose-dependent effect | 100 | 94.8 | 65 | 98 | 32 | 85.6 | 43 | 100 | Dose-dependent effect | 17 | 49 | 7640 | 2.5 | – | –
9 | COc1ccc2cc(C(=O)CN3CCC(Cc4ccccc4)CC3)ccc2c1 | – | – | – | – | – | – | – | 1400 | – | – | 286 | > 1000 | – | 4.9 | – | –
10 | COc1ccc(C(=O)CCN2CCCCC2)cc1.Cl | Dose-dependent effect | 119 | 104 | 43.4 | 63 | 14.4 | 49.4 | 2100 | 86 | Dose-dependent effect | 7.9 | 1700 | – | 256 | – | –
11 | COc1ccc(C(=O)CN2CCC(Cc3ccccc3)CC2)cc1.Cl | Dose-dependent effect | 103 | 85.5 | 52.5 | 87 | 65.6 | 69.3 | 2000 | 98.4 | Dose-dependent effect | 27 | 16 | – | 74 | 147000 | –
12 | C[C@H](CCN1CCCCC1)c1ccc(-c2ccccc2)cc1 | – | 100 | 84 | 57.3 | 86 | – | 77.1 | 45 | 100 | – | – | > 1000 | – | 25 | – | inactive
13 | O=C(CN1CCC(Cc2ccccc2)CC1)c1ccccc1 | – | – | – | – | – | – | – | 2300 | – | – | 75 | 215 | – | 30.7 | – | –
14 | COc1ccc(C(=O)CCN2CCC(Cc3ccccc3)CC2)cc1.Cl | Dose-dependent effect | 99.9 | 97.4 | 44.7 | 56.5 | 2.8 | 50.2 | 2400 | 63.9 | Dose-dependent effect | 11 | 198 | 22000 | 218 | – | inactive
15 | Cl.O=C(CCN1CCCCC1)c1ccc2ccccc2c1 | Dose-dependent effect | 98.6 | 70.3 | 40 | 65.4 | 18.3 | 42 | 178 | 66.4 | Dose-dependent effect | – | > 1000 | – | 81 | – | –
16 | Cl.O=C(CCN1CCOCC1)c1ccc2ccccc2c1 | Dose-dependent effect | 77 | 79 | 37 | 49 | 8.14 | 38 | > 1000 | 48 | Dose-dependent effect | – | > 1000 | – | – | – | –
17 | O=C(CCN1CCCCC1)c1ccccc1 | – | – | – | – | – | – | – | 749 | – | – | 171 | > 1000 | – | 4.4 | – | –
18 | Cl.O=C(CCN1CCC(Cc2ccccc2)CC1)c1ccccc1 | Dose-dependent effect | 93 | 106 | 36 | 49 | 25.9 | 44 | 5800 | 48 | Dose-dependent effect | 16 | 39 | – | 363 | – | –
19 | O=C(CCN1CCC(Cc2ccccc2)CC1)c1ccc2ccccc2c1 | – | – | – | – | – | – | – | 6200 | – | – | 211 | > 1000 | 18600 | 29.4 | – | –
20 | Cl.O=C(CCN1CCOCC1)c1ccc(-c2ccccc2)cc1 | Dose-dependent effect | 100 | 100 | 62.4 | 83.3 | 22.1 | 66 | > 1000 | 73 | Dose-dependent effect | – | 723 | – | – | – | –
21 | COc1ccc(C(=O)CCCN2CCC(Cc3ccccc3)CC2)cc1.Cl | Dose-dependent effect | 100 | 97.3 | 61 | 84.4 | 12.9 | 87 | 111 | 100 | Dose-dependent effect | 31 | 96 | 12800 | 6.8 | – | –
22 | O=C(CCN1CCC(Cc2ccccc2)CC1)c1ccc(-c2ccccc2)cc1 | – | – | – | – | – | – | – | 3900 | – | – | 167 | > 1000 | – | 23.4 | – | –
23 | COc1cccc(C(=O)CN2CCC(Cc3ccccc3)CC2)c1 | – | – | – | – | – | – | – | 1500 | – | – | 131 | 11 | 32800 | 11.5 | – | –
24 | O=C(CCN1CCOCC1)c1ccccc1 | – | – | – | – | – | – | – | > 1000 | – | – | 606 | > 1000 | – | – | – | –
